Reference: patent US20230023092A1, “TREATMENT OF DEPRESSION AND OTHER VARIOUS DISORDERS WITH PSILOCYBIN” (COMPASS […], priority 2019, published 2023)

Tests used:
[1] = post-ingestion; cited from earlier work
subjects = conditions: 20 mg escitalopram; cited from earlier work
Wistar-Kyoto (WKY) rats = assay: Sleep-wake scoring (EEG/EMG: wake, NREM, REM) in rat model of TRD; format: in vivo; conditions: 5 and 10 mg/kg, s.c.
From the text: Since WKY rats show decreased sensitivity to conventional monoamine-based antidepressant treatment, they are used as a model of TRD.
Male (WKY) rats (200-250 g) were implanted with electroencephalography (EEG) and electromyography (EMG) electrodes and telemetry transmitters under general anesthesia (2-5% isoflurane in Oxygen). A telemetry transmitter (HD-502, Data Sciences International) was placed in the peritoneal cavity, and the wires of the transmitter were passed through the muscle wall and then sub-dermally to the scalp to act as EEG/EMG electrodes. Two bore holes were made in the skull (Fronto-parietal coordinates; Bregma +2 mm anterior, midline +1.0 mm lateral and Lambda 0 mm, +1.5 mm lateral). The positive EEG electrode was attached to the anterior bore hole and the negative EEG electrode to the posterior bore hole. Both electrodes were secured in place using a suitable adhesive agent (Cyanoacrylate gel, RS components). […]
Animals were maintained on a 12/12 hour light dark cycle. On study days, the animals were placed in recording boxes and EEG/EMG, locomotor activity, as well as body temperature were recorded for 0.5 hours before and 24 hours after each dosing. […]
The subsequent EEG/EMG recordings were automatically scored as wake, non-REM (NREM) sleep, or REM sleep in 10 second epochs using SleepSign (Kissei Comtec, Japan). […]

| SMILES | Time to peak plasma concentration [1] | Frequency of common side effects: agitation or restlessness; diarrhea; difficulty sleeping; drowsiness; dry mouth; headache; nausea; sexual difficulties; dizziness; sweating (subjects) | Amount of REM sleep (Wistar-Kyoto (WKY) rats) |
| --- | --- | --- | --- |
| CN(C)CCC[C@@]1(c2ccc(F)cc2)OCc2cc(C#N)ccc21 [escitalopram] | 3 to 4 h | Common (~10% at 20 mg escitalopram) |  |
| CNC1(c2ccccc2Cl)CCCCC1=O (stereo not drawn) [ketamine] |  |  | decreased the amount of REM sleep in a dose-dependent manner |
